These results are taken from patent US9107814B2, “Micelle composition of polymer and passenger drug” (Wisconsin Alumni Research Foundation, priority 2005, dated 2015).

Structures are written as SMILES. ≈ marks a conversion by molar mass, not a printed value. Bounds are passed on as bounds.

For data set [1] the following is noted: different species; cited from earlier work.
The nature of data set [2]: loading of rapamycin and geldanamycin into PEG-DSPE and PEG-PCL micelles. The note with it: micelle solution against water solubility. It is filed as physicochemical. The source says:
The final solvent to water ratio is between about 0.1 and about 5, preferably between about 0.5 and about 4, and more preferably about 2. The micelle solution should be delivered at a rate of between about 2 s/drop and about 60 s/drop, preferably between about 5 s/drop and about 30 s/drop, and more preferably between about 10 s/drop and about 20 s/drop.

For data set [3] the following is noted: cited from earlier work.
Data set [4] deals with MDA-MB-468 breast cancer cell line. In words: MTS cytotoxicity assay. Type of data set: cell-based. The note with it: Homo sapiens, 96 h; MDA-MB-468, 4 days, drugs in 1% DMSO. How it is done: Cytotoxicities of the drugs to the MDA-MB-468 breast cancer cell line (ATCC) were determined. Cells are plated at a density of 3000 cells/well into 96 well plates (100 μl/well DMEM medium). After 24 hours, drugs were added dissolved in 1% DMSO. Cells were incubated with drugs for 4 days and toxicity determined using the MTS cytotoxicity assay according to manufacturer's directions (Promega, Madison, Wis.).
On the technique in general: Formazan colour is commonly taken as a measure of viable cells.

For data set [5] the following is noted: cited from earlier work. This is another data set of the same source.
For data set [6] the following is noted: preclinical trials; cited from earlier work.

Experimental for physchem: The octanol-water partition coefficient of geldanamycin was determined by microemulsion electrokinetic chromatography.
Running buffer was prepared by titration of 25-mM sodium phosphate monobasic with 50-mM sodium tetraborate to pH 7.00, and 1.44 g of sodium dodecyl sulfate, 6.49 g of 1-butanol, and 0.82 g of heptane were made up to 100 ml with phosphate-borate buffer. The running buffer was ultrasonicated for 30 min in a closed 250-ml flask in ice water (G112SP1 Special Ultrasonic Cleaner, Laboratory Supplies Company Inc., Hicksville, N.Y.). […] Compounds and standards (n=3) were dissolved in the running buffer (0.05 mg/ml) with 0.5 μL/ml of nitromethane and 0.5 μL/ml of 1-phenyldodecane by ultrasonication (10 min) in a closed tube and centrifuged (16000×g, 3 min) to degas. A BioFocus 3000 capillary electrophoresis system (Bio-Rad, Hercules, Calif.) equipped with a 50-μm ID×37-cm uncoated fused-silica column (Polymicron Technologies LLC, Phoenix, Ariz.) was used for MEEKC experiments. The column was prewashed with 1-M NaOH for 5 min and before runs with 0.1-M NaOH for 1 min, ddH2O for 1 min, and running buffer for 1 min at 100 psi (690 kPa). Running conditions were 10 kV (ca. 30-35 μA, 30 min/run) at 20° C. with 1-psi·s injections (6.9 kPa·s) and detection at 210 and 232 nm. Log Po/w and retention factors, k′, were calculated using the equations:
[formula] [formula] where tr, t0, and tme are retention times of the prodrug, nitromethane, and 1-phenyldodecane, respectively. Fitting parameters a and b were determined by linear regression of known standards: pyridine, phenol, benzoic acid, anisole, benzene, toluene, dodecanoic acid, benzopyrene, and pyrene (R^2=0.996, Excel® 2003, Microsoft Corp.).

The chromatographic logP is a lipophilicity value derived from retention on a column. A low value points to lower lipophilicity. In “physchem”, `CO[C@H]1C[C@@H]2CC[C@@H](C)[C@@](O)(O2)C(=O)C(=O)N2CCCC[C@H]2C(=O)O[C@H]([C@H](C)C[C@@H]2CC[C@@H](O)[C@H](OC)C2)CC(=O)[C@H](C)/C=C(\C)[C@@H](O)[C@@H](OC)C(=O)[C@H](C)C[C@H](C)/C=C/C=C/C=C/1C` [Rapamycin] registered a chromatographic logP of 3.77. The half-life result in data set [1] is “more than 5 hours”. For the same molecule, the increase in solubility in data set [2] was determined as 1900 fold.

One may read the IC50 as the midpoint of a concentration-inhibition curve. A higher IC50 goes with weaker potency. In “physchem”, `COC1=C2C[C@@H](C)C[C@H](OC)[C@H](O)[C@@H](C)/C=C(\C)[C@H](OC(N)=O)[C@@H](OC)/C=C\C=C(/C)C(=O)NC(=CC1=O)C2=O` [Geldanamycin] gave a chromatographic logP of around 2.77. Moreover, the MTD dog in data set [3] was below 100 mg/m^2. The molecule also displayed a 50% inhibitory concentration (IC50) in data set [4] of 5 nM. For the same molecule, in data set [5], the water solubility is around 1.5 µg/mL (≈ 2.68 µM). The “dose limiting severe hepatotoxicity” value in data set [6] is listed as 4 mg/kg. The molecule also returned an increase in solubility in data set [2] of 300 fold.
